Where two headings read alike, the source gives them in different places. Square brackets hold non-standard residues; d marks the D form. Ends that are not written are not given here. Peptide text beside a SMILES is read from it.
Columns and labels:
DRB1*0101 (DR1) = biological target: T1, DRB1*0101 (DR1) (Homo sapiens, UniProt P01903+P01911, A100R/D57E/F55L/F60I/F76Y/I96L/L162R/M171V/P40L/Q125E/R42F/V115G/Y59C); test: Class II peptide-binding assay, DR1;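 note: competition assay: unlabeled test peptides inhibit binding of a radiolabeled probe peptide to purified DR, with half-maximal inhibition taken as an approximate dissociation constant Kd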
T1 construct: used as sources of human HLA class II molecules; endogenous in cells; host or cells: LG2 (EBV-transformed homozygous B cell line)

DRB5*0101 (DR2w2a) = biological target: T2, DRB5*0101 (DR2w2a) (Homo sapiens, UniProt P01903+Q30154); test: Class II peptide-binding assay, DR2w2a (DR2w2B2);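 note: competitive binding assay: unlabeled peptide inhibiting binding of a radiolabeled probe peptide to purified DR molecules at pH 7.0, IC50 approximating Kd, lower means stronger binding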
T2 construct: used as sources of human HLA class II molecules; endogenous in cells; host or cells: GM3107 (EBV-transformed homozygous B cell line)

DRB1*0401 (DR4w4) = biological target: T3, DRB1*0401 (DR4w4) (Homo sapiens, UniProt P01903+P01911, A100K/A169T/F76Y/I96L/K127E/L162R/M171V/N62H/P40V/Q125Y/R42H/S133A/S149N/S66Y/V115G/V209L/W38E); test: Class II peptide-binding assay, DR4w4;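 note: unlabeled test peptides compete with a radiolabeled probe peptide for binding to affinity-purified HLA-DR, with DR amount titrated to capture a small fraction of label, IC50 approximating Kd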
T3 construct: used as sources of human HLA class II molecules; endogenous in cells; host or cells: PREISS (EBV-transformed homozygous B cell line)

DRB10404 (DR4w14) = biological target: T4, DRB10404 (DR4w14) (Homo sapiens, UniProt P01903+P01911, A100R/A169T/F76Y/I96L/K127E/L162R/M171V/N62H/P40V/Q125Y/R42H/S133A/S149N/S66Y/V209L/W38E); test: Class II peptide-binding assay, DR4w14;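 note: unlabeled peptides compete with a radiolabeled probe for binding to affinity-purified HLA-DR, neutral pH, class II amount titrated to bind a small fraction of label, IC50 approximates Kd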
T4 construct: used as sources of human HLA class II molecules; endogenous in cells; host or cells: BIN40 (EBV-transformed homozygous B cell line)

DRB1*1101 (DR5w11) = biological target: T5, DRB1*1101 (DR5w11) (Homo sapiens, UniProt P01903+P01911, A100R/A169T/A87E/I96F/K41T/L162R/M171V/P40S/Q125H/Q178H/Q39Y/Q99D/R42S/S66Y/T262R/V115G/W38E); test: Class II peptide-binding assay, DR5w11;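 note: competition by unlabeled test peptide against iodinated probe peptide binding to affinity-purified HLA-DR, class II amount titrated beforehand, half-maximal inhibitory concentration read as approximate Kd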
T5 construct: used as sources of human HLA class II molecules; endogenous in cells; host or cells: SWEIG (EBV-transformed homozygous B cell line)

DRB1*0701 (DR7) = DRB1*0701 (DR7) (Homo sapiens, UniProt P01903+P01911, A100R/A102G/A103Q/D57E/D86V/E43K/F76Y/K127E/L162R/M171V/P40G/Q125H/Q99D/R33Q/R42Y/R54Q/S133A/S66F/T210M/V115G/Y107V/Y59L/Y89S); test: Class II peptide-binding assay, DR7;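 note: unlabeled peptides compete with an iodinated probe peptide for binding to affinity-purified HLA-DR at neutral pH, DR amount titered to bind a small tracer fraction, IC50 approximating Kd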
[1] = read-out: DR1 nM (In IC50 Format), purified HLA DR1
[2] = read-out: DR2w2B2 nM (In IC50 Format), purified HLA DR2w2β2
[3] = read-out: DR4w4 nM (In IC50 Format), purified HLA DR4w4
[4] = read-out: DR4w14 nM (In IC50 Format), purified HLA DR4w14
[5] = read-out: DR5w11 nM (In IC50 Format), purified HLA DR5w11
[6] = read-out: DR7 nM (In IC50 Format), purified HLA DR7
[7] = read-out: DR1 nM, Table VIII, In IC50 Format
[8] = read-out: DR2w2B2 nM, Table VIII, In IC50 Format
[9] = read-out: DR4w4 nM, Table VIII, In IC50 Format
[10] = read-out: DR4w14 nM, Table VIII, In IC50 Format
[11] = read-out: DR5w11 nM, Table VIII, In IC50 Format

T5 sequence (P01903 26-254, other chains not shown): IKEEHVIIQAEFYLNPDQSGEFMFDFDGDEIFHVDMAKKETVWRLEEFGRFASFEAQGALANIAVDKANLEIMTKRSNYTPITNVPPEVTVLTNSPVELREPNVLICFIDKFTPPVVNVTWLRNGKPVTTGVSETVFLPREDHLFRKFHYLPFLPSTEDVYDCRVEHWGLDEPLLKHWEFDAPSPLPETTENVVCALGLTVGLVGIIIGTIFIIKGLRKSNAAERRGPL

| Compound | IC50 (DRB1*0101 (DR1); [1]) [nM] | IC50 (DRB5*0101 (DR2w2a); [2]) [nM] | IC50 (DRB1*0401 (DR4w4); [3]) [nM] | IC50 (DRB10404 (DR4w14); [4]) [nM] | IC50 (DRB1*1101 (DR5w11); [5]) [nM] | IC50 (DRB1*0701 (DR7); [6]) [nM] | further results |
| --- | --- | --- | --- | --- | --- | --- | --- |
| YERFQSQTTLKAKT-NH2 [Peptide 717.39] | 18.5 | 800 | 10.7 | 16.7 | 47.6 | 8330 |  |
| INSWVESQTNGIIRNVLQPS [Peptide 732.01] | 385 | 1330 | 166 | 269 | 6670 | 269 |  |
| INSWVESQTNGIIR [Peptide 608.02] |  |  |  |  |  |  | IC50 (DRB1*0101 (DR1); read-out: In IC50 Format DR1, Table VIII): 556 nM; IC50 (DRB5*0101 (DR2w2a); read-out: In IC50 Format DR2w2β2, Table VIII): > 10000 nM; IC50 (DRB1*0401 (DR4w4); read-out: In IC50 Format DR4w4, Table VIII): 375 nM; IC50 (DRB10404 (DR4w14); read-out: In IC50 Format DR4w14, Table VIII): 16700 nM; IC50 (DRB1*0701 (DR7); read-out: In IC50 Format DR7, Table VIII): 14.7 nM |
| KSNTATSATQRLANSLVH [Peptide 735.01] | 313 |  | 441 | 352 | 1330 | 12500 |  |
| YARFQRQTTLKIAT [Peptide 716.01] | 2.9 | 95.2 | 16.7 | 111 |  | 42.7 |  |
| YARYQSQTTLKAKT-NH2 [Peptide 717.42] | 7.8 | 364 | 3.1 | 66.7 | 14.3 |  |  |
| CC[C@H](C)[C@H](NC(=O)[C@H](CCSC)NC(=O)[C@H](Cc1c[nH]c2ccccc12)NC(=O)[C@H](CS)NC(=O)[C@H](CCCCN)NC(=O)[C@@H](NC(=O)[C@H](CCSC)NC(=O)[C@@H](NC(=O)[C@H](CCSC)NC(=O)[C@H](Cc1ccc(O)cc1)NC(=O)[C@@H](NC(=O)[C@@H](N)CC(=O)O)C(C)C)[C@@H](C)CC)C(C)C)C(=O)N[C@@H](CC(=O)O)C(=O)N[C@@H](CO)C(=O)N[C@@H](CCC(=O)O)C(=O)O [Peptide 39.0277] |  |  |  |  |  |  | IC50 (DRB1*0401 (DR4w4); Table VIII, page 2, read-out: In IC50 Format DR4w4 nM): 790 nM; IC50 (DRB1*1101 (DR5w11); Table VIII, page 2, read-out: In IC50 Format DR5w11 nM): 909 nM |
| CC(C)C[C@H](NC(=O)[C@@H](NC(=O)[C@@H](NC(=O)[C@H](CCC(N)=O)NC(=O)[C@H](CCCNC(=N)N)NC(=O)[C@H](CCC(N)=O)NC(=O)[C@H](Cc1ccccc1)NC(=O)[C@H](CCCNC(=N)N)NC(=O)[C@H](C)NC(=O)[C@H](N)Cc1ccc(O)cc1)[C@@H](C)O)[C@@H](C)O)C(=O)N[C@@H](CCCCN)C(=O)N[C@@H](C)C(=O)N[C@@H](C)C(=O)N[C@H](C)C(N)=O [Peptide 781.09] (H-[dY]ARFQRQTTLKAA[dA]-NH2) | 2.8 | 37.7 | 2 | 7.4 | 7.4 |  |  |
| YARFQSETTEKAKT-NH2 [Peptide 717.07] |  | 5000 | 64.3 | 806 |  |  |  |
| CC(C)C[C@H](NC(=O)[C@@H](NC(=O)[C@@H](NC(=O)[C@H](CCC(N)=O)NC(=O)[C@H](CO)NC(=O)[C@H](CCC(N)=O)NC(=O)[C@H](Cc1ccccc1)NC(=O)[C@H](CCCCN)NC(=O)[C@H](C)NC(=O)[C@H](N)Cc1ccc(O)cc1)[C@@H](C)O)[C@@H](C)O)C(=O)N[C@@H](CCCCN)C(=O)N[C@@H](C)C(=O)N[C@@H](CCCCN)C(=O)N[C@@H](C(N)=O)[C@H](C)O [Peptide 858.02] (H-[dY]AKFQSQTTLKAK[dT]-NH2) |  |  |  |  |  |  | IC50 (DRB1*0101 (DR1); [7]): 9 nM; IC50 (DRB5*0101 (DR2w2a); [8]): 32.4 nM; IC50 (DRB1*0401 (DR4w4); [9]): 6.4 nM; IC50 (DRB10404 (DR4w14); [10]): 17.9 nM; IC50 (DRB1*1101 (DR5w11); [11]): 16.3 nM |
| YARFQSQTTLEAKT-NH2 [Peptide 717.22] | 7.9 | 870 | 11.8 |  | 29.4 | 2780 |  |
| QPDVRPQPPSPREGP [Peptide 39.0280] |  |  |  |  |  |  | IC50 (DRB1*0101 (DR1); Table VIII, page 2, read-out: In IC50 Format DR1): 7140 nM |
| YARFQSQTPLKAKT-NH2 [Peptide 717.37] | 2.5 | 64.5 | 9 | 67.5 | 8 |  |  |
| YARFQFQTTLKAKT-NH2 [Peptide 717.46] | 4.5 | 40 |  | 2.6 | 3.7 | 4170 |  |
| ASQKRPSQRSKYLATAST [Peptide 765.011] | 313 | 2500 | 321 |  | 4440 | 961 |  |
| LMAMGITDVFSSSANLSGI [Peptide 705.08] | 417 |  | 14.1 |  | 2500 | 403 |  |
| CC[C@H](C)[C@H](NC(=O)[C@@H](NC(=O)[C@H](CC(C)C)NC(=O)[C@@H](NC(=O)[C@@H]1CCCN1C(=O)[C@H](CCCNC(=N)N)NC(=O)[C@@H](N)CCCNC(=N)N)[C@@H](C)CC)[C@@H](C)O)C(=O)N[C@H](C(=O)N[C@H](C(=O)N[C@@H](CC(C)C)C(=O)N[C@@H](CCC(=O)O)C(=O)N[C@@H](CC(=O)O)C(=O)N[C@@H](CO)C(=O)N[C@@H](CO)C(=O)NCC(=O)O)[C@@H](C)O)[C@@H](C)CC [Peptide 39.0310] |  |  |  |  |  |  | IC50 (DRB1*0701 (DR7); read-out: In IC50 Format DR7 nM, Table VIII, page 2): 10900 nM |
| C[C@H](NC(=O)[C@H](C)NC(=O)[C@H](C)NC(=O)[C@H](C)NC(=O)[C@H](Cc1ccc(O)cc1)NC(=O)[C@H](C)NC(=O)[C@@H](C)N)C(=O)N[C@@H](C)C(=O)N[C@@H](C)C(=O)N[C@@H](CCCCN)C(=O)N[C@@H](C)C(=O)N[C@@H](C)C(=O)N[C@H](C)C(N)=O [Peptide 762.01] (H-[dA]AYAAAAAAKAA[dA]-NH2) | 1.7 | 27.4 | 7.1 |  | 46.8 | 1670 |  |
| CC(C)C[C@H](NC(=O)[C@@H](NC(=O)[C@@H](NC(=O)[C@H](CCC(N)=O)NC(=O)[C@H](CO)NC(=O)[C@H](CCC(N)=O)NC(=O)[C@H](Cc1ccccc1)NC(=O)[C@H](CCCNC(=N)N)NC(=O)[C@H](C)NC(=O)[C@H](N)Cc1ccc(O)cc1)[C@@H](C)O)[C@@H](C)O)C(=O)N[C@@H](CCCCN)C(=O)N[C@@H](C)C(=O)N[C@@H](CCCCN)C(=O)N[C@@H](C(N)=O)[C@H](C)O [Peptide 858.06] (H-[dY]ARFQSQTTLKAK[dT]-NH2) |  |  |  |  |  |  | IC50 (DRB1*0101 (DR1); [7]): 4.5 nM; IC50 (DRB5*0101 (DR2w2a); [8]): 64 nM; IC50 (DRB1*0401 (DR4w4); [9]): 5 nM; IC50 (DRB1*1101 (DR5w11); [11]): 18.2 nM |
| CC(C)C[C@H](NC(=O)[C@@H](NC(=O)[C@@H](NC(=O)[C@H](CCC(N)=O)NC(=O)[C@H](CCCNC(=N)N)NC(=O)[C@H](CCC(N)=O)NC(=O)[C@@H](N)Cc1ccccc1)[C@@H](C)O)[C@@H](C)O)C(=O)N[C@@H](CCCCN)C(=O)N[C@@H](C)C(=O)N[C@@H](C)C(=O)N[C@H](C)C(N)=O [Peptide 781.06] (H-FQRQTTLKAA[dA]-NH2) | 19.2 |  | 2.4 | 13.9 |  |  |  |
| CC(C)C[C@H](NC(=O)[C@@H](NC(=O)[C@@H](NC(=O)[C@H](CCC(N)=O)NC(=O)[C@H](CO)NC(=O)[C@H](CCC(N)=O)NC(=O)[C@H](Cc1ccccc1)NC(=O)[C@H](C)NC(=O)[C@H](C)NC(=O)[C@H](N)Cc1ccc(O)cc1)[C@@H](C)O)[C@@H](C)O)C(=O)N[C@@H](CCCCN)C(=O)N[C@@H](C)C(=O)N[C@@H](CCCCN)C(=O)N[C@@H](C(N)=O)[C@H](C)O [Peptide 858.04] (H-[dY]AAFQSQTTLKAK[dT]-NH2) |  |  |  |  |  |  | IC50 (DRB5*0101 (DR2w2a); [8]): 141 nM; IC50 (DRB1*0401 (DR4w4); [9]): 4.5 nM; IC50 (DRB10404 (DR4w14); [10]): 15.6 nM; IC50 (DRB1*1101 (DR5w11); [11]): 19.6 nM; IC50 (DRB1*0701 (DR7); read-out: DR7 nM, Table VIII, In IC50 Format): 25000 nM |
| YARFQSQTTLKAET-NH2 [Peptide 717.26] | 35.7 |  | 18 | 20 |  | 4170 |  |
| CC(C)C[C@H](NC(=O)[C@@H](NC(=O)[C@@H](NC(=O)[C@H](CCC(N)=O)NC(=O)[C@H](CCCCN)NC(=O)[C@H](CC(=O)O)NC(=O)[C@H](Cc1ccccc1)NC(=O)[C@@H](CCCNC(=N)N)NC(=O)[C@H](C)NC(=O)[C@H](N)Cc1ccc(O)cc1)[C@@H](C)O)[C@@H](C)O)C(=O)N[C@@H](CCCCN)C(=O)N[C@@H](C)C(=O)N[C@@H](C)C(=O)N[C@H](C)C(=O)O [Peptide 781.19] (H-[dY]A[dR]FDKQTTLKAA[dA]-OH) | 60.2 | 3330 | 8.1 | 96.6 | 47.5 |  |  |

From patent EP1388586A2, “Identification of broadly reactive DR restricted epitopes” (priority 1998, dated 1999)
